Assay results: ChEMBL document CHEMBL5518238, “Structure-Activity Relationship (SAR) Studies of Novel Monovalent AR/AR-V7 Dual Degraders with Potent Efficacy against Advanced Prostate Cancer” (J Med Chem, 2024)
Calls of active or inactive are those of the source. No cut-off for these calls is given here.

Tests used:
[1] = Toxicity in NSG mouse xenografted with human 22Rv1 cells assessed as spleen damage t at 30 mg/kg, IG administered once daily for 21 days by H and E staining based analysis; format: organism-based, CWR22R; settings: in vivo, po, 504 h, time 21 day
[2] = test system: CWR22R; experiment: Antitumor activity against human 22Rv1 cells xenografted in NSG mouse assessed as decrease in AR-V7 level in tumor at 10 mg/kg, IG administered once daily for 3 days by […] based analysis; format: functional, organism-based; settings: time 3.0 day
[3] = test system: CWR22R; experiment: Downregulation of […] mRNA expression in human 22Rv1 cells incubated for 24 hrs by qRT-PCR analysis; format: functional, cell-based; settings: dose 5-10 µM
[4] = test system: CWR22R; experiment: Induction of apoptosis in human 22Rv1 cells assessed as effect on Caspase-3 level incubated for 24 hrs by Western blot analysis; format: functional, cell-based; settings: dose <= 10.0 µM
[5] = test system: CWR22R; experiment: Downregulation of MMP16 mRNA expression in human 22Rv1 cells at 10 uM incubated for 24 hrs by qRT-PCR analysis; format: functional, cell-based
[6] = test system: CWR22R; experiment: Downregulation of FKBP5 mRNA expression in human 22Rv1 cells at 10 uM incubated for 24 hrs by qRT-PCR analysis; format: functional, cell-based
[7] = test system: CWR22R; experiment: Induction of cell cycle arrest in human 22Rv1 cells assessed as accumulation of cells at G0/G1 phase at 5 uM incubated for 24 hrs by DAPI staining based flow cytometric analysis (reference value: 26.3 %); format: functional
[8] = test system: CWR22R; experiment: Downregulation of AR-V7 mRNA expression in human 22Rv1 cells at 5 to 10 uM incubated for 12 hrs by qRT-PCR analysis; format: functional, cell-based; settings: dose 5-10 µM
[9] = Toxicity in NSG mouse xenografted with human 22Rv1 cells assessed as kidney damage t at 30 mg/kg, IG administered once daily for 21 days by H and E staining based analysis; format: organism-based, CWR22R; settings: in vivo, po, 504 h, time 21 day
[10] = test system: CWR22R; experiment: Antitumor activity against human 22Rv1 cells xenografted in NSG mouse assessed as decrease in AR level in tumor at 10 mg/kg, IG administered once daily for 3 days by […] based analysis; format: functional, organism-based; settings: time 3.0 day
[11] = test system: CWR22R; experiment: Downregulation of AR expression in human 22Rv1 cells at 5 uM incubated for 24 hrs by Western blot analysis; format: functional, cell-based
[12] = MRT (0 to infinity) in Sprague-Dawley rat at 5 mg/kg, iv by LC-MS/MS analysis; format: ADME, organism-based; settings: in vivo
[13] = molecular target: T1, Androgen receptor (Homo sapiens) (UniProt P10275); experiment: Binding affinity to AR-NTD in human 22Rv1 cels by SPR analysis
T1 sequence (whole entry): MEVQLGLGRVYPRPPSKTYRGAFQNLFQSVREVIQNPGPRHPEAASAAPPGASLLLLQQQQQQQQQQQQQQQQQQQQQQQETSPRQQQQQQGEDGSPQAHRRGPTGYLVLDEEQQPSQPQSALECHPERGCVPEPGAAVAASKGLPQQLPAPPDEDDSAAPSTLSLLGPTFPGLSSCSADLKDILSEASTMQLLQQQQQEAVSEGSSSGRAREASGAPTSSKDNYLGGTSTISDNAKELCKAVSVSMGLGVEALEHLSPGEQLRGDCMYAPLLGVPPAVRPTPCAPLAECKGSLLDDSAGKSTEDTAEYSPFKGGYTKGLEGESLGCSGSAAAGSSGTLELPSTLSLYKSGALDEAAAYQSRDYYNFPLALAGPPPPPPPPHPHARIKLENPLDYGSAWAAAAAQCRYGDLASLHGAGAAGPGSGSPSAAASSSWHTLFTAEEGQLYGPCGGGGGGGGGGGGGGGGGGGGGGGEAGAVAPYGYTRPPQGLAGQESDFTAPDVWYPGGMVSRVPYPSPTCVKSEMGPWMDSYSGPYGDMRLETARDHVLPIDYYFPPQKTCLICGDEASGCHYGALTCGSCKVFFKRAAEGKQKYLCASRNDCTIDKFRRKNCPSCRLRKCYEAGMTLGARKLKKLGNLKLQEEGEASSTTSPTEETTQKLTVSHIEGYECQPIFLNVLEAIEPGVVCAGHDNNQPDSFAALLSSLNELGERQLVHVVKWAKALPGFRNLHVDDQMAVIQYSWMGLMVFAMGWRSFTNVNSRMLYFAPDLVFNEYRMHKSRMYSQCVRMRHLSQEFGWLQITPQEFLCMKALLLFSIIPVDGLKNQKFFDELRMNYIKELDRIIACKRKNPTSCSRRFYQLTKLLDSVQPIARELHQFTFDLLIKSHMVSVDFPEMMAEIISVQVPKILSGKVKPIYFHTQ

[14] = test system: CWR22R; experiment: Antitumor activity against human 22Rv1 cells xenografted in NSG mouse assessed as change in tumor volume at 30 mg/kg, IG administered once daily for 21 days; format: functional, organism-based; settings: time 21.0 day
[15] = Toxicity in NSG mouse xenografted with human 22Rv1 cells assessed as liver damage t at 30 mg/kg, IG administered once daily for 21 days by H and E staining based analysis; format: organism-based, CWR22R; settings: in vivo, po, 504 h, time 21 day
[16] = test system: CWR22R; experiment: Inhibition of colony formation in human 22Rv1 cells incubated for 2 weeks by crystal violet staining based analysis; format: functional, cell-based; settings: dose 0.1-5 µM
[17] = test system: CWR22R; experiment: Downregulation of BCHE mRNA expression in human 22Rv1 cells at 10 uM incubated for 24 hrs by qRT-PCR analysis; format: functional, cell-based
[18] = MRT (0 to t) in Sprague-Dawley rat at 5 mg/kg, iv by LC-MS/MS analysis; format: ADME, organism-based; settings: in vivo
[19] = test system: CWR22R; experiment: Induction of cell cycle arrest in human 22Rv1 cells assessed as accumulation of cells at G0/G1 phase at 1 uM incubated for 24 hrs by DAPI staining based flow cytometric analysis (reference value: 26.3 %); format: functional
[20] = test system: CWR22R; experiment: Induction of apoptosis in human 22Rv1 cells at 5 uM incubated for 24 hrs by Annexin V-FITC/PI staining based flow cytometric analysis (reference value: 3.70 %); format: functional
[21] = test system: CWR22R; experiment: Effect on ER level in human 22Rv1 at 2.5 to 20 uM incubated for 24 hrs by Western blot analysis; format: functional, cell-based; settings: dose 2.5-20 µM
[22] = Stability in mouse plasma assessed as half life measured after 60 mins; format: ADME, cell-free
[23] = test system: CWR22R; experiment: Downregulation of P3H3 mRNA expression in human 22Rv1 cells at 10 uM incubated for 24 hrs by qRT-PCR analysis; format: functional, cell-based
[24] = test system: CWR22R; experiment: Induction of apoptosis in human 22Rv1 cells assessed as effect on Bcl-xL level incubated for 24 hrs by Western blot analysis; format: functional, cell-based; settings: dose <= 10.0 µM
[25] = molecular target: T1, Androgen receptor (Homo sapiens); experiment: Induction of AR degradation in human LNCaP cells incubated for 24 hrs by Western blot analysis; format: cell-based; settings: dose <= 30.0 µM
[26] = test system: CWR22R; experiment: Downregulation of KLK2 mRNA expression in human 22Rv1 cells incubated for 24 hrs by qRT-PCR analysis; format: functional, cell-based; settings: dose 5-10 µM
[27] = test system: Androgen receptor (Homo sapiens), P10275 [UNDEFINED MUTATION]; experiment: Induction of AR-V7 degradation in human 22Rv1 cells at 20 uM incubated for 24 hrs in presence of Bortezomib by Western blot analysis; format: cell-based
[28] = AUC (0 to t) in Sprague-Dawley rat at 50 mg/kg, po by LC-MS/MS analysis; format: ADME, organism-based; settings: in vivo
[29] = test system: CWR22R; experiment: Downregulation of DHCR24 mRNA expression in human 22Rv1 cells at 10 uM incubated for 24 hrs by qRT-PCR analysis; format: functional, cell-based

What does the source list for CC1(C)C(=O)N(c2ccc(C#N)c(C(F)(F)F)c2)C(=O)N1CCNc1ccc(F)c2ncccc12?
Activity [1]: Non-Toxic; Activity [2]: Active; Activity [3]: Dose-Dependent Effect; Activity [4]: Dose-Dependent Effect; Activity [5]: Active; Activity [6]: Active; Activity [7]: 50.6%; Activity [8]: Active; Activity [9]: Non-Toxic; Activity [10]: Active; Activity [11]: Active; MRT [12]: 4.1 h; Activity [13]: Active; Activity [14]: Active; Activity [15]: Non-Toxic; inhibition [16]: Dose-Dependent Effect; Activity [17]: Active; MRT last [18]: 1.3 h; Activity [19]: 41.5%; Activity [20]: 18.81%; Activity [21]: Active; half-life [22]: 4.78 h; Activity [23]: Active; Activity [24]: Dose-Dependent Effect; Activity [25]: Dose-Dependent Effect; Activity [26]: Dose-Dependent Effect; Activity [27]: Active; AUC(0-t) [28]: 3060 ng·h/mL; Activity [29]: Active
